Measured values reported in patent publication US8828908B2, “Herbicidally active bicyclic 1,3-dione compounds” (Syngenta Limited, priority 2007, dated 2014).

What was measured:
Type in all cases: in vivo
[1] = tested on: Alopecurus myosuroides (ALOMY); experiment: Example A pre-emergence herbicidal glasshouse test; details: 312 h, Rate 250 g/ha, evaluated after 13 days, 100=total damage to plant, 0=no damage to plant
Method in brief: (§1)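 Glasshouse pot assay: 24/16 °C, 14 h light, 65% humidity, twice-daily watering. Spray timing was 1 day after sowing (pre) or 8 days (post); vehicle acetone/water 50:50 with 0.5% Tween 20. Plants were rated 13 days after treatment, 100 meaning total damage.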

[2] = tested on: Amaranthus retroflexus (AMARE); experiment: Example A pre-emergence herbicidal glasshouse test; details: 312 h, Rate 250 g/ha, evaluated after 13 days, 100=total damage to plant, 0=no damage to plant
Method in brief: as §1

Avena fatua (AVEFA) [3] = experiment: Example A pre-emergence herbicidal glasshouse test; details: 312 h, Rate 250 g/ha, evaluated after 13 days, 100=total damage to plant, 0=no damage to plant
Method in brief: as §1

[4] = tested on: Echinochloa crus-galli (ECHCG); experiment: Example A pre-emergence herbicidal glasshouse test; details: 312 h, Rate 250 g/ha, evaluated after 13 days, 100=total damage to plant, 0=no damage to plant
Method in brief: as §1

Setaria faberi (SETFA) [5] = experiment: Example A pre-emergence herbicidal glasshouse test; details: 312 h, Rate 250 g/ha, evaluated after 13 days, 100=total damage to plant, 0=no damage to plant
Method in brief: as §1

Solanum nigrum (SOLNI) [6] = experiment: Example A pre-emergence herbicidal glasshouse test; details: Rate 250 g/ha, evaluated after 13 days, 100=total damage to plant, 0=no damage to plant
Method in brief: as §1

[7] = tested on: Alopecurus myosuroides (ALOMY); experiment: Example A post-emergence herbicidal glasshouse test; details: 312 h, evaluated after 13 days, 100=total damage to plant, 0=no damage
Method in brief: as §1

[8] = tested on: Amaranthus retroflexus (AMARE); experiment: as above; details: 312 h, evaluated after 13 days, 100=total damage to plant, 0=no damage
Method in brief: as §1

Avena fatua (AVEFA) [9] = experiment: as above; details: 312 h, evaluated after 13 days, 100=total damage to plant, 0=no damage
Method in brief: as §1

[10] = tested on: Echinochloa crus-galli (ECHCG); experiment: as above; details: 312 h, evaluated after 13 days, 100=total damage to plant, 0=no damage
Method in brief: as §1

Setaria faberi (SETFA) [11] = experiment: as above; details: 312 h, evaluated after 13 days, 100=total damage to plant, 0=no damage
Method in brief: as §1

Solanum nigrum (SOLNI) [12] = experiment: as above; details: 250 g/ha, evaluated after 13 days, 100=total damage to plant, 0=no damage
Method in brief: as §1

[13] = tested on: Alopecurus myosuroides (ALOMY); experiment: Example B pre-emergence herbicidal greenhouse test; details: 480 h, evaluated after 20 days, 100=total damage to plant, 0=no damage
Method in brief: (§2)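 Pots sown with test species were sprayed 1 day after sowing (pre-emergence) or at 10 days post-sowing (post-emergence) with the technical ingredient dissolved in acetone and diluted via emulsifier/solvent formulation. After 20 days (pre) or 15 days (post), effect was rated from 0 (no damage) to 100 (total damage).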

Avena fatua (AVEFA) [14] = experiment: Example B pre-emergence herbicidal greenhouse test; details: 480 h, evaluated after 20 days, 100=total damage to plant, 0=no damage
Method in brief: as §2

[15] = tested on: Digitaria sanguinalis (DIGSA); experiment: Example B pre-emergence herbicidal greenhouse test; details: 480 h, evaluated after 20 days, 100=total damage to plant, 0=no damage
Method in brief: as §2

[16] = tested on: Echinochloa crus-galli (ECHCG); experiment: Example B pre-emergence herbicidal greenhouse test; details: 480 h, evaluated after 20 days, 100=total damage to plant, 0=no damage
Method in brief: as §2

Lolium perenne (LOLPE) [17] = experiment: Example B pre-emergence herbicidal greenhouse test; details: 480 h, evaluated after 20 days, 100=total damage to plant, 0=no damage
Method in brief: as §2

Setaria faberi (SETFA) [18] = experiment: Example B pre-emergence herbicidal greenhouse test; details: 480 h, evaluated after 20 days, 100=total damage to plant, 0=no damage
Method in brief: as §2

[19] = tested on: Alopecurus myosuroides (ALOMY); experiment: Example B post-emergence herbicidal greenhouse test; details: 360 h, evaluated after 15 days, 100=total damage to plant, 0=no damage
Method in brief: as §2

Avena fatua (AVEFA) [20] = experiment: as above; details: 360 h, evaluated after 15 days, 100=total damage to plant, 0=no damage
Method in brief: as §2

[21] = tested on: Digitaria sanguinalis (DIGSA); experiment: as above; details: 360 h, evaluated after 15 days, 100=total damage to plant, 0=no damage
Method in brief: as §2

[22] = tested on: Echinochloa crus-galli (ECHCG); experiment: as above; details: 360 h, evaluated after 15 days, 100=total damage to plant, 0=no damage
Method in brief: as §2

Lolium perenne (LOLPE) [23] = experiment: as above; details: 360 h, evaluated after 15 days, 100=total damage to plant, 0=no damage
Method in brief: as §2

Setaria faberi (SETFA) [24] = experiment: as above; details: 360 h, evaluated after 15 days, 100=total damage to plant, 0=no damage
Method in brief: as §2

Row | Compound | pest or weed control at 250 g/ha [1] [%] | pest or weed control at 250 g/ha [2] [%] | pest or weed control at 250 g/ha (Avena fatua (AVEFA) [3]) [%] | pest or weed control at 250 g/ha [4] [%] | pest or weed control at 250 g/ha (Setaria faberi (SETFA) [5]) [%] | SOLNI damage to plant (Solanum nigrum (SOLNI) [6]) | pest or weed control at 250 g/ha [7] [%] | pest or weed control at 250 g/ha [8] [%] | pest or weed control at 250 g/ha (Avena fatua (AVEFA) [9]) [%] | pest or weed control at 250 g/ha [10] [%] | pest or weed control at 250 g/ha (Setaria faberi (SETFA) [11]) [%] | SOLNI damage to plant (Solanum nigrum (SOLNI) [12]) | also measured
1 | Cc1ccc(-c2cccc(F)c2)cc1C1=C(O)[C@H]2CC[C@H](C2)C1=O (single isomer, unassigned) [Compound T13] | 0 | 0 | 0 | 0 | 0 | 0 | 0 | 0 | 0 | 10 | 0 | 0 | 
2 | CCc1ccc(-c2ccc(C)c(C3=C(O)[C@H]4CC[C@H](C4)C3=O)c2)cc1 (single isomer, unassigned) [Compound T14] | 0 | 0 | 0 | 0 | 0 | 0 | 0 | 0 | 0 | 30 | 70 | 0 | 
3 | Cc1cc(C)c(-c2ccc(C)c(C3=C(O)[C@H]4CC[C@H](C4)C3=O)c2)c(C)c1 (single isomer, unassigned) [Compound T15] | 0 | 0 | 0 |  | 0 |  |  | 0 |  |  | 0 | 0 | 
4 | Cc1ccc(-c2ccccc2F)cc1C1=C(O)[C@H]2CC[C@H](C2)C1=O (single isomer, unassigned) [Compound T16] | 0 | 0 | 0 | 0 | 0 | 0 | 0 | 0 | 0 | 0 | 0 | 0 | 
5 | Cc1ccc(-c2ccc(F)cc2)cc1C1=C(O)[C@H]2CC[C@H](C2)C1=O (single isomer, unassigned) [Compound T17] | 0 | 0 | 10 | 50 | 80 | 0 | 10 | 0 | 0 | 70 | 80 | 0 | 
6 | Cc1ccc(-c2ccc(Cl)cc2)cc1C1=C(O)[C@H]2CC[C@H](C2)C1=O [Compound T1, 3-(4′-chloro-4-methylbiphen-3-yl)bicyclo[3.2.1]octane-2,4-dione] | 50 | 0 | 40 | 90 | 90 | 0 | 80 | 50 | 90 | 100 | 100 | 20 | pest or weed control at 250 g/ha [13]: 80%; pest or weed control at 250 g/ha (Avena fatua (AVEFA) [14]): 30%; pest or weed control at 250 g/ha [15]: 50%; pest or weed control at 250 g/ha [16]: 100%; pest or weed control at 250 g/ha (Lolium perenne (LOLPE) [17]): 100%; pest or weed control at 250 g/ha (Setaria faberi (SETFA) [18]): 100%; pest or weed control at 125 g/ha [19]: 50%; pest or weed control at 125 g/ha (Avena fatua (AVEFA) [20]): 30%; pest or weed control at 125 g/ha [21]: 90%; pest or weed control at 125 g/ha [22]: 90%; pest or weed control at 125 g/ha (Lolium perenne (LOLPE) [23]): 50%; pest or weed control at 125 g/ha (Setaria faberi (SETFA) [24]): 90%
7 | CCc1ccc(-c2ccc(Cl)cc2)cc1C1=C(O)[C@H]2CC[C@H](C2)C1=O [Compound T4, 3-(4′-chloro-4-ethylbiphen-3-yl)bicyclo[3.2.1]octane-2,4-dione] | 50 | 0 | 50 | 100 | 90 | 0 | 90 | 0 | 100 | 100 | 100 | 0 | pest or weed control at 250 g/ha [13]: 100%; pest or weed control at 250 g/ha (Avena fatua (AVEFA) [14]): 80%; pest or weed control at 250 g/ha [15]: 100%; pest or weed control at 250 g/ha [16]: 100%; pest or weed control at 250 g/ha (Lolium perenne (LOLPE) [17]): 100%; pest or weed control at 250 g/ha (Setaria faberi (SETFA) [18]): 100%; pest or weed control at 125 g/ha [19]: 80%; pest or weed control at 125 g/ha (Avena fatua (AVEFA) [20]): 100%; pest or weed control at 125 g/ha [21]: 100%; pest or weed control at 125 g/ha [22]: 100%; pest or weed control at 125 g/ha (Lolium perenne (LOLPE) [23]): 100%; pest or weed control at 125 g/ha (Setaria faberi (SETFA) [24]): 100%
